# Reference: patent publication US20050064521A1, “In vitro assay for evaluation of angiogenic effects” (TUNGHAI UNIVERSITY, priority 2003, published 2005)
# Experiments:
# endothelial cells [1] = assay: Tube formation of endothelial cells in three-dimensional collagen fiber gel model, inverted microscopy; type: cell-based, Sprague-Dawley (SD) rats; conditions: cultured for 48 hours
# Method: (§1) Three-dimensional collagen fiber gel: The dry collagen fiber was extract from tails of Sprague-Dawley (SD) rats. The fiber was dissolved in 1 N acetic acid solution in the concentration of 1 g fiber/100 mL acetic acid. The dissolving was performed at 4° C. for 48 hours and followed by dialysis three times with 0.25 N acetic acid solution for 24 hours.
# (§2) Endothelial cells: SD rats weighting 100 to 200 g were anaesthetized with 0.1 mL/100 g body weight of barbiturate (Nembutal™, Abbott® Laboratories, USA) intraperitoneally. The thoracic aortas were cut and the connective tissues were removed. The vessels were further split into vessel rings thickening about 2 mm, and then cultured the rings in fresh Dulbecco's modified Eagle medium (DMEM) with 10% fetal bovine serum. The culture was maintained at 37° C. with 5% CO2 with changing the medium every two days. After cultured for 5 to 6 days, the cells were harvested. The endothelial cells suitable for the method according to the invention were the second to tenth passage cells.
# Model: The endothelial cells (3×10^6) were mixed in the three-dimensional collagen fiber gel and cultured in DMEM containing 5% fetal bovine serum and 10 ng/mL VEGF and 3.08 ng/mL TPA at 37° C. After culturing the endothelial cells for 0, 6, 12, 24, 48, and 72 hours, the morphologies of the cell and gel were both observed with an inverted microscope. […]
# endothelial cells [2] = assay: Collapse of the three-dimensional collagen fiber gel, trypan blue absorbance measurement; type: cell-based, Sprague-Dawley (SD) rats
# Method: as §1
# as §2, with “cells. […]” for “cells.”
# After culturing for 48 hours, the medium was removed and 0.075% trypan blue was added for staining the gels for 30 minutes. The upper solution was then removed and the absorbance of the solution was determined with a spectroscope. […]
# It was evidenced that the degree of collapse of the three-dimensional collagen fiber gel is decreased with the addition of EGCg. That results support that the effect of a compound on angiogenesis can be determined by comparing the degrees of collapse of the collagen fiber gels of the models. For instance, the compound is determined to have a stimulatory effect on angiogenesis in case the collapse of the collagen fiber gel of the model added with the compound is increased in comparison with that added without the compound; in contrast, the compound is determined to have an inhibitory effect on angiogenesis in case the collapse of the collagen fiber gel of the model added with the compound is decreased in comparison with that added without the compound.
structure (smiles),measurement,setting,value
"O=C(O[C@@H]1Cc2c(O)cc(O)cc2O[C@@H]1c1cc(O)c(O)c(O)c1)c1cc(O)c(O)c(O)c1 [EGCg, epigallocatechin gallate]",tubes and cell count versus control without EGCg,endothelial cells [1]; 25 μM EGCg,less tubes and lower cell count
same,tubes,endothelial cells [1]; 100 μM EGCg,almost no tubes
same,inhibitory effect on angiogenesis (absorbance measurement),endothelial cells [2]; 25 μM EGCg,a little inhibitory effect on angiogenesis
same,collapse of the gel (absorbance measurement),endothelial cells [2]; 50 μM EGCg,nearly totally inhibited
same,collapse of the gel (absorbance measurement),endothelial cells [2]; 100 μM EGCg,nearly no collapse was observed
